Molecular target: human α7 nAchR (Homo sapiens (Human), UniProt P36544)
Assay: Human α7 nicotinic acetylcholine receptor [Ca2+]i assay (PAM, Ca2+ fluorometry)
Type: cell-based
Settings: Flp-In 293 cells expressing human α7 nAchR and human RIC-3; in presence of saturating agonist (mostly PNU-282987, 1 μM)
Procedure: Biological Activity Human α7 Nicotinic Acetylcholine Receptor [Ca^2+]i Assay
Cells: Flp-In 293 cells stably expressing human α7 nAchR and human RIC-3 (α7 cells, generated in house.)
Materials: 96-well plates coated with PDL (Falcon), culture medium, assay buffer, DMSO, FLIPR Calcium 5 kit (Molecular Devices), probenecid, agonist and PAM test compounds.
Brief Description of the Method (Ca^2+ Fluorometry)
α7 cells stably expressing human α7 nAchR were cultured in the medium detailed above, and were split twice a week. For the fluorometric measurements of cytosolic Ca^2+ ion concentration ([Ca^2+]i) cells were seeded in 96-well microplates at a density of 60000 cells/well and maintained overnight in a tissue culture incubator at 37° C. under an atmosphere of 95% air/5% CO2. The plating medium was identical with the culture medium. 50 μl of the growth medium was aspirated with a cell washer (BioTek Elx405UCVWS). Then 50 μl/well Calcium 5 kit diluted 2-fold in assay buffer was added manually using an 8-channel pipette. After an incubation period (20 minutes, 37° C.) 50 μl/well assay buffer containing vehicle (DMSO, 4% added) or reference α7 PAMs (4×of the final concentration) were added manually and the cells were incubated for an additional 10 minutes at 37° C. Baseline and agonist-evoked [Ca2+]i-changes were monitored with FlexStation II (Molecular Devices, Sunnyvale, Calif.), a plate reader fluorometer with integrated 8-channel fluid addition capability. Fluorescence measurements were carried out at 37° C. The dye was excited at 485 nm, emission was sampled at 525 nm at 1.4-s intervals. Baseline was recorded for 20 seconds followed by agonist stimulation. 50 μl 4× concentrated agonist solution was added to the cells using the pipettor of FlexStation II and fluorescence was monitored for an additional 40 seconds. Final DMSO concentration was 1% for all treatments. To achieve this, a series of DMSO stock solutions were prepared from all test compounds. These stocks were stored under 0° C. and were further diluted in assay buffer to obtain the desired final concentration immediately before the measurement. Agonist and PAM concentration-response studies were conducted in the presence of saturating concentrations of PAMs (mostly PNU-120596, 5 μM) and agonists (mostly PNU-282987, 1 μM), respectively. Results were expressed as ΔF/F values using SoftMax Pro software (Molecular Devices), where F was the resting fluorescence preceding agonist application and ΔF was the increase in fluorescence at a given time (ΔF=maximum fluorescence intensity values after stimulation minus average fluorescence intensity values before stimulation). In all experiments, all treatments were measured in multiple wells in parallel, and the mean ΔF/F values were used for analysis.

human α7 nAchR, sequence (P36544 23-502): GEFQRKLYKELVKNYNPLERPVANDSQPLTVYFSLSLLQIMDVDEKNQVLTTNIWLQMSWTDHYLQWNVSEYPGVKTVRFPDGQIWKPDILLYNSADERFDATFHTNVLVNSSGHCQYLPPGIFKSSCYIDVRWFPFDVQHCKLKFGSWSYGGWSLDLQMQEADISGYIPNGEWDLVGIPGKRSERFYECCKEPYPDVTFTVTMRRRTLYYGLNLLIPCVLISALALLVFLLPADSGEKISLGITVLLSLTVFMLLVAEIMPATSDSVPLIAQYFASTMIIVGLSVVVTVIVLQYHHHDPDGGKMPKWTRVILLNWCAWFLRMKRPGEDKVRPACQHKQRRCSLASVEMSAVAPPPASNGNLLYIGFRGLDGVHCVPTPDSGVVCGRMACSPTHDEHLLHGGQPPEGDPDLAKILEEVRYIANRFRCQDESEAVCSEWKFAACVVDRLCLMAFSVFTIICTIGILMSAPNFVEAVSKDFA

SMILES | EC50 [nM]
CCN1C(C(=O)Nc2cccc(C(C)(F)F)n2)=CC([C@H]2CC[C@H](C(F)(F)F)CC2)=NS1(=O)=O [Example 78] | 790
COCCN1C(C(=O)Nc2cccc(C(F)(F)F)n2)=CC([C@H]2CC[C@H](C(F)(F)F)CC2)=NS1(=O)=O [Example 128] | 310
CCN1C(C(=O)Nc2cccc(C(F)(F)F)c2)=CC(c2ccc(OC)c(OC)c2)=NS1(=O)=O [Example 31] | 440
COc1ccc(C2=NS(=O)(=O)N(C)C(C(=O)Nc3cc(Cl)ccc3OC)=C2)cc1Cl [Example 25] | 1400
CN1C(C(=O)Nc2cccc(C(F)(F)F)n2)=CC([C@H]2CC[C@H](C(F)(F)F)CC2)=NS1(=O)=O [Example 54] | 480
CCN1C(C(=O)Nc2cccc(C(F)(F)F)c2)=CC(c2ccc(OC)c(C(F)(F)F)c2)=NS1(=O)=O [Example 39] | 150
COc1ccc(C2=NS(=O)(=O)N(C(C)C)C(C(=O)Nc3cccc(Cl)c3)=C2)cc1OC [Example 92] | 290
CCCN1C(C(=O)Nc2cccc(C(F)(F)F)c2)=CC(c2ccc(OC)c(Cl)c2)=NS1(=O)=O [Example 100] | 150
COc1ccc(NC(=O)C2=CC(c3ccc(OC)c(OC)c3)=NS(=O)(=O)N2CC2CC2)cc1 [Example 116] | 100
C=CCN1C(C(=O)Nc2ccc(OC)cc2)=CC(c2ccc(OC)c(OC)c2)=NS1(=O)=O [Example 120] | 120
CCN1C(C(=O)Nc2cc(Cl)ccn2)=CC([C@H]2CC[C@H](C(F)(F)F)CC2)=NS1(=O)=O [Example 62] | 2800
CCN1C(C(=O)Nc2ccc(OC)cc2)=CC(c2ccc(OC)c(C)c2)=NS1(=O)=O [Example 43] | 110
O=C(Nc1ccnc(C(F)(F)F)n1)C1=CC([C@H]2CC[C@H](C(F)(F)F)CC2)=NS(=O)(=O)N1CC1CC1 [Example 137] | 130
O=C(Nc1cccc(F)n1)C1=CC(C2CCC(F)(F)CC2)=NS(=O)(=O)N1CC1CC1 [Example 135] | 120
COc1ccc(C2=NS(=O)(=O)N([C@H]3CCOC3)C(C(=O)Nc3cccc(C(F)(F)F)n3)=C2)cc1OC [Example 83] | 310
C=CCN1C(C(=O)Nc2cccc(C(F)(F)F)c2)=CC(c2ccc(OC)c(OC)c2)=NS1(=O)=O [Example 121] | 220
CCN1C(C(=O)Nc2ccnc(F)n2)=CC([C@H]2CC[C@H](C(F)(F)F)CC2)=NS1(=O)=O [Example 79] | 320
CCCN1C(C(=O)Nc2cccc(C(F)(F)F)n2)=CC(c2ccc(OC)c(C)c2)=NS1(=O)=O [Example 99] | 40
CCc1cccc(NC(=O)C2=CC(c3ccc(OC)c(OC)c3)=NS(=O)(=O)N2C)c1 [Example 5] | 210
COc1ccc(C2=NS(=O)(=O)N(C)C(C(=O)Nc3ccc4c(c3)CCN(C)C4=O)=C2)cc1OC [Example 2] | 1400
COCCN1C(C(=O)Nc2cccc(C(F)(F)F)n2)=CC(C2CCC(F)(F)CC2)=NS1(=O)=O [Example 130] | 960
CCN1C(C(=O)Nc2cccc(Cl)c2)=CC(c2ccc(OC)c(C)c2)=NS1(=O)=O [Example 47] | 500
CCN1C(C(=O)Nc2ccc(C)c(C)c2)=CC(c2ccc(OC)c(OC)c2)=NS1(=O)=O [Example 34] | 130
CCN1C(C(=O)Nc2ccc(OC)cc2)=CC(c2ccc(OC)c(C(F)(F)F)c2)=NS1(=O)=O [Example 38] | 45
CCCCN1C(C(=O)Nc2cccc(C(F)(F)F)c2)=CC(c2ccc(OC)c(OC)c2)=NS1(=O)=O [Example 111] | 200
C=CCN1C(C(=O)Nc2cccc(C(F)(F)F)n2)=CC(c2ccc(OC)c(OC)c2)=NS1(=O)=O [Example 107] | 55
Cc1cccc(NC(=O)C2=CC(c3ccc4c(cnn4C)c3)=NS(=O)(=O)N2C)c1 [Example 22] | 370

SMILES | EC50 [nM]
COc1ccc(C2=NS(=O)(=O)N(C)C(C(=O)Nc3ccc(C)cn3)=C2)cc1OC [Example 17] | 2800
CCN1C(C(=O)Nc2cccc(C(F)(F)F)c2)=CC(C2CCC(F)(F)CC2)=NS1(=O)=O [Example 51] | 810
O=C(Nc1cccc(C(F)(F)F)n1)C1=CC([C@H]2CC[C@H](C(F)(F)F)CC2)=NS(=O)(=O)N1CC1CC1 [Example 106] | 70
COc1ccc(C2=NS(=O)(=O)N(C)C(C(=O)Nc3ccc4c(c3)OCO4)=C2)cc1OC [Example 9] | 1600
COc1ccc(C2=NS(=O)(=O)N(C)C(C(=O)Nc3cccc(C)c3)=C2)cc1Cl [Example 27] | 110
CCCN1C(C(=O)Nc2cccc(C(F)(F)F)n2)=CC(c2ccc(OC)c(Cl)c2)=NS1(=O)=O [Example 101] | 65
CC(C)N1C(C(=O)Nc2cncc(C(F)(F)F)n2)=CC([C@H]2CC[C@H](C(F)(F)F)CC2)=NS1(=O)=O [Example 124] | 110
CCN1C(C(=O)Nc2ccc(Cl)c(OC)c2)=CC(c2ccc(OC)c(OC)c2)=NS1(=O)=O [Example 35] | 150
COc1ccc(C2=NS(=O)(=O)N(C)C(C(=O)Nc3ccc(C)c(Cl)c3)=C2)cc1OC [Example 13] | 340
COc1ccc(C2=NS(=O)(=O)N(C)C(C(=O)Nc3cccc(C(F)(F)F)c3)=C2)cc1OC [Example 12] | 230
CCN1C(C(=O)Nc2cccc(C(F)(F)F)n2)=CC(C2CC=CC2)=NS1(=O)=O [Example 75] | 960
COc1ccc(C2=NS(=O)(=O)N([C@@H]3CCOC3)C(C(=O)Nc3cccc(C(F)(F)F)n3)=C2)cc1OC [Example 84] | 130
CC(C)N1C(C(=O)Nc2ccnc(C(F)(F)F)n2)=CC([C@H]2CC[C@H](C(F)(F)F)CC2)=NS1(=O)=O [Example 136] | 150
CC(C)N1C(C(=O)Nc2cccc(C(F)(F)F)n2)=CC(C2CCC(F)(F)CC2)=NS1(=O)=O [Example 126] | 220
CCN1C(C(=O)Nc2cccc(C(F)(F)F)c2)=CC([C@H]2CC3C[C@@H]3C2)=NS1(=O)=O (some centres unmarked) [Example 52] | 1600
CN1C(C(=O)Nc2cccc(F)n2)=CC(C2CCC(F)(F)CC2)=NS1(=O)=O [Example 56] | 2500
COc1ccc(C2=NS(=O)(=O)N(CC3CC3)C(C(=O)Nc3cccc(C(F)(F)F)c3)=C2)cc1OC [Example 102] | 320
CCN1C(C(=O)Nc2cccc(F)n2)=CC([C@H]2CC[C@H](C(F)(F)F)CC2)=NS1(=O)=O [Example 61] | 100
CCN1C(C(=O)Nc2cccc(C(F)(F)F)c2F)=CC([C@H]2CC[C@H](C(F)(F)F)CC2)=NS1(=O)=O [Example 57] | 2000
COc1ccc(C2=NS(=O)(=O)N(C)C(C(=O)Nc3cccc(F)c3)=C2)cc1OC [Example 19] | 1600
COc1ccc(C2=NS(=O)(=O)N(C)C(C(=O)Nc3cccc(C(F)(F)F)c3)=C2)cc1Cl [Example 26] | 360
CCN1C(C(=O)Nc2cccc(F)n2)=CC(C2CCCCC2)=NS1(=O)=O [Example 74] | 1100
COc1ccc(C2=NS(=O)(=O)N(CC(F)(F)F)C(C(=O)Nc3cccc(C)c3)=C2)cc1OC [Example 119] | 380
CC[C@@H](C)N1C(C(=O)Nc2cccc(C(F)(F)F)n2)=CC(c2ccc(OC)c(OC)c2)=NS1(=O)=O [Example 81] | 120
CCCN1C(C(=O)Nc2cccc(C(F)(F)F)c2)=CC(c2ccc(OC)c(C)c2)=NS1(=O)=O [Example 98] | 100
COc1ccc(C2=NS(=O)(=O)N(C)C(C(=O)Nc3ccc(C)cc3)=C2)cc1OC [Example 14] | 1400

Reference: patent publication US12194050B2, “Thiadiazine derivatives” (RICHTER GEDEON NYRT., priority 2018, dated 2025)
